Patent US20250122173A1, “MODULATORS OF RHO-ASSOCIATED PROTEIN KINASE” (Redx Pharma Limited, priority 2022, published 2025)

Columns and labels:
ROCK2 = molecular target: T1, ROCK2 (Homo sapiens, UniProt O75116); experiment: ROCK2 inhibition assay (ADP-Glo kinase assay, called ROCK2 binding activity); assay type: biochemical; conditions: 20 μM ATP, 1 hour pre-incubation, read-out: ROCK 2 (IC50 category)
T1 construct: N-terminal 6His-tagged ROCK2 catalytic domain 11-552; 6His (N); purchased Dundee University, UK; host or cells: baculovirus expression system
T1 sequence (O75116 11-552): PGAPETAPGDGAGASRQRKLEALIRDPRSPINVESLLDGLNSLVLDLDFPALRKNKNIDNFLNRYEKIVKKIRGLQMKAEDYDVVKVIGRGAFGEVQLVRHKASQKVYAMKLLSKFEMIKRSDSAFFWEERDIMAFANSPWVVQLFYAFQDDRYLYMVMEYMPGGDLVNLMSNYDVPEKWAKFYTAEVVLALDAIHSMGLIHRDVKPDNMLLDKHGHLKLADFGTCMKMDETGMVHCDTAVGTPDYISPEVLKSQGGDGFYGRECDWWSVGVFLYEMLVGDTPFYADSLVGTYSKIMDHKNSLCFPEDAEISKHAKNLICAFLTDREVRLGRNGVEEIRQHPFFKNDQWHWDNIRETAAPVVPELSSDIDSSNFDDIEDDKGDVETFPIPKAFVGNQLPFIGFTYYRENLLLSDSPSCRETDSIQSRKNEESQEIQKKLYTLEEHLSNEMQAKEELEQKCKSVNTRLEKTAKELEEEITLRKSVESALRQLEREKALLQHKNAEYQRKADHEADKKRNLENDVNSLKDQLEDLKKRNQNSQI
Method in brief: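 N-terminal 6His ROCK2 catalytic domain (11-552, baculovirus-expressed; 1.25 nM) was pre-incubated with compound for 1 h (1% DMSO, HEPES pH 7.5). Reaction then ran 1 h with 100 μM long S6 peptide and 20 μM ATP. ADP was quantified by ADP-Glo luminescence, and IC50 was derived from a four-parameter logistic fit and reported in potency bins.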

ROCK1 = ROCK1 (Homo sapiens, UniProt Q13464); experiment: ROCK1 inhibition assay (ROCK1 binding activity, as determined by the assay described for ROCK2); assay type: biochemical; conditions: read-out: ROCK 1 (IC50 category)
ROCK1, sequence (Q13464 whole entry): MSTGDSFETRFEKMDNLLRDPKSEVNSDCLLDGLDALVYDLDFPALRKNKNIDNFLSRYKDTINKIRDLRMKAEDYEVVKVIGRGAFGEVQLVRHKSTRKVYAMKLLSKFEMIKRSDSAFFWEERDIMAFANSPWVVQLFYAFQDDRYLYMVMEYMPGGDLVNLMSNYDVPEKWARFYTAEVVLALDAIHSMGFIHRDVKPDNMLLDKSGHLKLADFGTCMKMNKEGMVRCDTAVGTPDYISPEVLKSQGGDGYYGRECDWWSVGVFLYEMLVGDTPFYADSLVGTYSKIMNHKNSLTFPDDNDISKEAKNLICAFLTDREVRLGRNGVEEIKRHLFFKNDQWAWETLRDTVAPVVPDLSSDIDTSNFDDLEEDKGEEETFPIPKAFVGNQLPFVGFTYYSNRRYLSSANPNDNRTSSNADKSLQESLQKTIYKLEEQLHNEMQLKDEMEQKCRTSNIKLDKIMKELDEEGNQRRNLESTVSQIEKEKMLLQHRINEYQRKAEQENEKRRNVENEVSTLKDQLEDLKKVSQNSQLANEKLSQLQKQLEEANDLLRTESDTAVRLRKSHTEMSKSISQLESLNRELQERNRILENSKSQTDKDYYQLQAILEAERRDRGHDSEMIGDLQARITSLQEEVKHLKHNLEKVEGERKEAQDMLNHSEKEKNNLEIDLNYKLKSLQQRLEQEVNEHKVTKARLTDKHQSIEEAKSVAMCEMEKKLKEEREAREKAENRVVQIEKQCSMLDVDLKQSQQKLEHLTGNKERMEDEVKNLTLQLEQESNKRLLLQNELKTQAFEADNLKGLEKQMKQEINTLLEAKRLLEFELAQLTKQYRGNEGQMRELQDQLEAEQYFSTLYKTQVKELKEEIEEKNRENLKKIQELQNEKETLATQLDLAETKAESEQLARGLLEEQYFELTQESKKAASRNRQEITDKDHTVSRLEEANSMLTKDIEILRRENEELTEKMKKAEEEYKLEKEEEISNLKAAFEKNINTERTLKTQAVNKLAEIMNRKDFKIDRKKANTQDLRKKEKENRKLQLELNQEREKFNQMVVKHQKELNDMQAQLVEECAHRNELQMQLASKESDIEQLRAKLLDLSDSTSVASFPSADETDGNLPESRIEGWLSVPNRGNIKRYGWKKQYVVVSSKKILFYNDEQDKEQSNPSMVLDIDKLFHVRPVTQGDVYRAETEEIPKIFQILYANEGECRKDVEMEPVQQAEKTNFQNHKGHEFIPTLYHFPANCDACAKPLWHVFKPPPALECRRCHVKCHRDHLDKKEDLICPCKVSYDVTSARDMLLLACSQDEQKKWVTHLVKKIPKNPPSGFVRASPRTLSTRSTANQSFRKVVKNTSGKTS
Method in brief: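 Run under the conditions used for ROCK2: 1 h compound–kinase preincubation, then 1 h reaction with 100 μM long S6 peptide and 20 μM ATP in 50 mM HEPES pH 7.5, 1% DMSO. ADP quantified by ADP-Glo luminescence; IC50 from four-parameter logistic fit, reported in potency categories.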

Which IC50 (ROCK2) does the source give for `CCn1nc(-c2ccc(C3CCN(C)CC3)c(C)c2)nc1Nc1cc2c(cc1C)C(=O)NC2C` (stereo not shown) [Example 144] here?
Its IC50 is greater than 10 µM.

What about the IC50 (ROCK1) of the same compound?
The IC50 was greater than 10 µM.

Which results are given for `CCn1nc(-c2ccc(C3CCC(C)NC3)c(C)c2)nc1Nc1cc2c(cc1C)C(=O)NC2C` (stereo not shown) [Example 145, 5-[[2-ethyl-5-[3-methyl-4-(6-methyl-3-piperidyl)phenyl]-1,2,4-triazol-3-yl]amino]-3,6-dimethyl-isoindolin-1-one]?
IC50 (ROCK2): 3 to 10 µM; IC50 (ROCK1): > 10 µM

`CCn1nc(-c2ccc(C3CCN(CC(F)(F)F)CC3)cc2)nc1Nc1cc2c(cc1F)C(=O)NC2C` (stereo not shown) [Example 146] was tested. Which IC50 (ROCK2) did it give?
The IC50 was 0.3 to 3 µM.

And the IC50 (ROCK1)?
The IC50 was greater than 10 µM.

With `CCn1nc(-c2ccc(C3CCCN(CC(F)(F)F)C3)c(C)c2)nc1Nc1cc2c(cc1C)C(=O)NC2C` (stereo not shown) [Example 147] as the compound, how does the IC50 (ROCK2) read?
Its IC50 is 0.3 to 3 µM.

And the IC50 (ROCK1)?
The IC50 was greater than 10 µM.

What does the source list for `CCn1nc(-c2ccc(C3CCC(C)NC3)cc2)nc1Nc1cc2c(cc1C)C(=O)NC2C` (stereo not shown) [Example 148]?
IC50 (ROCK2): > 10 µM; IC50 (ROCK1): > 10 µM

With `CCn1nc(-c2ccc(-c3ccc(C)nc3)cc2C)nc1Nc1cc2c(cc1F)C(=O)NC2C` (stereo not shown) [Example 149] as the compound, how does the IC50 (ROCK2) read?
The IC50 was less than 0.3 µM.

And the IC50 (ROCK1)?
Its IC50 is greater than 10 µM.

How did the IC50 (ROCK2) turn out when `CCn1nc(-c2ccc(-c3ccc(C)nc3)cc2C)nc1Nc1cc2c(cc1C)C(=O)NC2C` (stereo not shown) [Example 150] was run?
The IC50 was less than 0.3 µM.

What about the IC50 (ROCK1) of the same compound?
Its IC50 is 3 to 10 µM.

What does the source list for `CCn1nc(-c2ccc(C3CCCN(C)C3)cc2)nc1Nc1cc2c(cc1C)C(=O)NC2C` (stereo not shown) [Example 151]?
IC50 (ROCK2): > 10 µM; IC50 (ROCK1): > 10 µM

`CCn1nc(-c2ccc(-c3cnn(CC(F)(F)F)c3)cc2)nc1Nc1cc2c(cc1C)C(=O)NC2C` (stereo not shown) [Example 152] was tested. Which IC50 (ROCK2) did it give?
The IC50 was less than 0.3 µM.

And the IC50 (ROCK1)?
Its IC50 is 3 to 10 µM.

What does the source list for `CCn1nc(-c2ccc(-c3cnn(CC(F)(F)F)c3)cc2C)nc1Nc1cc2c(cc1C)C(=O)NC2C` (stereo not shown) [Example 153]?
IC50 (ROCK2): < 0.3 µM; IC50 (ROCK1): 0.3 to 3 µM

What does the source list for `CCn1nc(-c2ccc(-c3ccc(C(C)(C)O)nc3)c(C)c2)nc1Nc1cc2c(cc1C)C(=O)NC2C` (stereo not shown) [Example 154]?
IC50 (ROCK2): < 0.3 µM; IC50 (ROCK1): 0.3 to 3 µM

Which results are given for `CCn1nc(-c2ccc(C3CCC(C)NC3)cc2C)nc1Nc1cc2c(cc1C)C(=O)NC2C` (stereo not shown) [Example 155]?
IC50 (ROCK2): 3 to 10 µM; IC50 (ROCK1): > 10 µM

With `CCn1nc(-c2ccc(-c3ccc(C4CC4)nc3)c(C)c2)nc1Nc1cc2c(cc1C)C(=O)NC2C` (stereo not shown) [Example 156] as the compound, how does the IC50 (ROCK2) read?
The IC50 was 0.3 to 3 µM.

And the IC50 (ROCK1)?
Its IC50 is greater than 10 µM.

What does the source list for `CCn1nc(-c2ccc(-c3ccc(C(C)(C)O)nc3)cc2)nc1Nc1cc2c(cc1C)C(=O)NC2C` (stereo not shown) [Example 157]?
IC50 (ROCK2): < 0.3 µM; IC50 (ROCK1): 0.3 to 3 µM

Which IC50 (ROCK2) does the source give for `CCn1nc(-c2ccc(-n3cnc(C4CC4)c3)cc2C)nc1Nc1cc2c(cc1C)C(=O)N[C@@H]2C` [Example 158] here?
The IC50 was less than 0.3 µM.

And the IC50 (ROCK1)?
The IC50 was 3 to 10 µM.

What does the source list for `CCn1nc(-c2ccc(-n3cnc(C4CC4)c3)cc2C)nc1Nc1cc2c(cc1C)C(=O)N[C@H]2C` [Example 159]?
IC50 (ROCK2): < 0.3 µM; IC50 (ROCK1): 0.3 to 3 µM

Which results are given for `CCn1nc(-c2ccc(-c3ccc(C4CC4)nc3)cc2)nc1Nc1cc2c(cc1F)C(=O)N[C@@H]2C` [Example 160]?
IC50 (ROCK2): < 0.3 µM; IC50 (ROCK1): 3 to 10 µM

`CCn1nc(-c2ccc(-c3ccc(C4CC4)nc3)cc2)nc1Nc1cc2c(cc1F)C(=O)N[C@H]2C` [Example 161] was tested. Which IC50 (ROCK2) did it give?
Its IC50 is less than 0.3 µM.

What about the IC50 (ROCK1) of the same compound?
Its IC50 is 3 to 10 µM.

For `CCn1nc(-c2ccc(-c3cnn(CC(F)(F)F)c3)cc2)nc1Nc1cc2c(cc1C)C(=O)N[C@H]2C` [Example 162], which IC50 (ROCK2) is on record?
Its IC50 is less than 0.3 µM.

What about the IC50 (ROCK1) of the same compound?
The IC50 was 3 to 10 µM.

`CCn1nc(-c2ccc(-c3cnn(CC(F)(F)F)c3)cc2)nc1Nc1cc2c(cc1C)C(=O)N[C@@H]2C` [Example 163] was tested. Which IC50 (ROCK2) did it give?
Its IC50 is less than 0.3 µM.

What about the IC50 (ROCK1) of the same compound?
Its IC50 is 0.3 to 3 µM.
